This is an account of results in US20240252456A1, “ORAL COMPOSITION, SKIN COSMETIC AND HAIR COSMETIC” (MARUZEN PHARMACEUTICALS CO., LTD., priority 2021, published 2024).

Each structure is given as a SMILES string.

Experiment [1] relates to Normal human dermal fibroblasts (NB1RGB). Description: Glutathione production promotive action test (dermal fibroblasts). It is filed as cell-based. The settings on record: 24 hours. How it is done:
Normal human dermal fibroblasts (NB1RGB) were cultured using α-modified Eagle's minimum essential medium (α-MEM) containing 10% FBS, and then the cells were collected by a trypsin treatment. The collected cells were diluted with α-MEM containing 10% FBS to a cell density of 2.0×10^5 cells/mL, then seeded with 200 μL per well in a 48-well plate, and cultured for 48 hours.
After culturing, the medium was removed, 200 μL of each of test samples (Samples 1 to 3, see Table 14 below for final concentrations) dissolved in Dulbecco's modified Eagle's medium (DMEM) containing 1% FBS was added to each well, and culturing was further performed for 24 hours. As a control, culturing was performed in the same manner using DMEM containing 1% FBS to which no test sample was added. After the culturing was completed, the medium was removed from each well, and the cells were washed with 400 μL of PBS(−) buffer solution and then lysed using 150 μL of M-PER (available from PIERCE).
Quantitative determination of total glutathione was performed using 100 μL of the lysed cells. That is, 100 μL of lysed cell extract, 50 μL of 0.1 mol/L phosphate buffer solution, 25 μL of 2 mmol/L NADPH, and 25 μL of 3.2 unit/mL glutathione reductase were added to a 96-well plate and heated at 37° C. for 10 minutes, then 25 μL of 10 mmol/L 5,5′-dithiobis(2-nitrobenzoic acid) was added, and the absorbance at a wavelength of 412 nm was measured until 5 minutes later to determine ΔOD/min. The total glutathione concentration was calculated based on a calibration curve created using oxidized glutathione (available from FUJIFILM Wako Pure Chemical Corporation). After correcting the obtained value to the glutathione value per total protein amount, the glutathione production promotion rate (%) was calculated using the following equation.
Terms in the equation represent the following respective ones. • A: Glutathione amount per total protein amount without sample addition • B: Glutathione amount per total protein amount with test sample addition

Experiment [2] concerns Normal human liver cells (hepatocytes). Description: ATP production promotive action test in hepatocytes. It is filed as cell-based. The note with it: 2 hours. How it is done: Normal human liver cells (hepatocytes) were cultured using Dulbecco's modified Eagle's medium (DMEM) containing 10% FBS, and then the cells were collected by a trypsin treatment. The collected cells were diluted with DMEM containing 10% FBS to a cell density of 2.0×10^5 cells/mL, then seeded with 100 μL per well in a 96-well plate, and cultured overnight.
After the culturing was completed, the medium was removed, 100 μL of each of test samples (Samples 1 to 3, see Table 31 below for final concentrations) dissolved in DMEM containing 10% FBS was added to each well, and culturing was performed for 2 hours. As a control, culturing was performed in the same manner using DMEM containing 10% FBS to which no sample was added.
The ATP production promotive action was evaluated by measuring the amount of ATP in cells using the firefly luciferase luminescence method. That is, after culturing for 2 hours, 100 μL of an ATP measurement reagent (available from Toyo B-Net Co., Ltd., trade name “‘Cellular’ ATP measurement reagent”) was added to each well, and chemiluminescence reaction using luciferase was performed. After the reaction, the amount of chemiluminescence proportional to the amount of intracellular ATP was measured using a chemiluminescence measurement device (available from Thermo Fisher Scientific, product name: Varioskan LUX multimode microplate reader). From the obtained results, the ATP production promotion rate (%) was calculated using the following equation.
Terms in the equation represent the following respective ones. • A: Chemiluminescence amount with test sample addition • B: Chemiluminescence amount without sample addition

The subject of experiment [3] is Normal human dermal fibroblasts (NB1RGB). Description: Elastin production promotive action test. The settings on record: 5 days. It is filed as cell-based. How it is done:
Normal human dermal fibroblasts (NB1RGB) were cultured using Dulbecco's modified Eagle's medium (DMEM) containing 10% FBS, and then the cells were collected by a trypsin treatment. The collected cells were diluted with the above medium to a cell density of 2.2×10^5 cells/mL, then seeded with 100 μL per well in a 96-well microplate, and cultured overnight.
After the culturing was completed, the medium was removed, and 150 μL of each of test samples (Samples 2 and 3, see Table 7 below for final concentrations) dissolved in DMEM containing 0.25% FBS was added to each well, and culturing was performed for 5 days. As a control, culturing was performed in the same manner using DMEM containing 0.25% FBS to which no sample was added. After the culturing was completed, the supernatant was recovered, and the amount of elastin released in the culture supernatant was measured by ELISA method. From the measurement results, the elastin production promotion rate (%) was calculated using the following equation.
Terms in the equation represent the following respective ones. • A: Elastin amount with test sample addition • B: Elastin amount without sample addition

Another experiment concerns OCLN mRNA. Description: Occludin (OCLN) mRNA expression promotive action test. The class given is cell-based, human. The note with it: NHEK, 24 hours, corrected with GAPDH. As for the experimental part:
Normal human neonatal epidermal keratinocytes (NHEK) were precultured using normal human epidermal keratinocyte growth medium (KGM), and the cells were collected by a trypsin treatment. The collected cells were diluted with KGM to a cell density of 15×10^4 cells/mL, then seeded with 2 mL portions in a 6-well plate (30×10^4 cells/well), and cultured overnight under conditions of 37° C. and 5% CO2. After culturing, the medium was replaced with normal human epidermal keratinocyte basal medium (KBM, the above KGM without addition of growth additives (hEGF, BPE, insulin, antibacterial agents, hydrocortisone)), and culturing was further performed for 24 hours.
After culturing for 24 hours, the medium was removed, and 2 mL of each of test samples (Samples 1 and 3, see Table 20 below for final concentrations) dissolved in KBM was added to each well, and culturing was performed under conditions of 37° C. and 5% CO2 for 24 hours. As a control, culturing was performed in the same manner using KBM to which no sample was added. After culturing, the medium was removed, total RNA was extracted using ISOGEN II (available from NIPPON GENE CO., LTD.), each RNA amount was measured using a spectrophotometer, and the total RNA was prepared so as to be 150 ng/μL.
For OCLN and GAPDH as an internal standard, the expression levels of mRNA were measured using the above total RNA as a template. Detection was performed through a two-step real-time RT-PCR reaction using a real-time PCR device, Thermal Cycler Dice Real Time System III (available from Takara Bio Inc.), with PrimeScript™ RT Master Mix (Perfect Real Time) (available from Takara Bio Inc.) and TB Green® Fast qPCR Mix (available from Takara Bio Inc.). Primers available from Takara Bio Inc. were used. The expression level of OCLN mRNA was obtained as a value corrected with a value of GAPDH based on total RNA preparations prepared from cells cultured “with test sample addition” and “without sample addition.” From the obtained values, the OCLN mRNA expression promotion rate (%) was calculated using the following equation. […]

Turning to `O=C(O)CCc1ccccc1` [Sample 3, 3-phenylpropionic acid], in experiment [1] (1000 μmol/L), the “Glutathione production promotion rate” value is 129.9%. The “ATP production promotion rate” value in experiment [2] (250 μmol/L) is given as 128.0%; in experiment [2] (500 μmol/L) it was 136.5%; in experiment [2] (1000 μmol/L), 156.1%. Besides, the “Elastin production promotion rate” value is reported as 174.0% in experiment [3] (62.5 μmol/L) and 239.0% in experiment [3] (250 μmol/L). Further, the “OCLN mRNA expression promotion rate” value in the experiment with OCLN mRNA (25 μmol/L) turned out to be 141.5%.

Turning to `O=C(O)CCc1ccc(O)cc1` [Sample 2, 3-(4-Hydroxyphenyl)propionic acid], the “Glutathione production promotion rate” value in experiment [1] (1000 μmol/L) is given as 131.7%. The “ATP production promotion rate” value in experiment [2] (250 μmol/L) came out at 141.9%; in experiment [2] (500 μmol/L), 159.1%; in experiment [2] (1000 μmol/L), 165.1%. In addition, the “Elastin production promotion rate” value in experiment [3] (15.6 μmol/L) turned out to be 145.4%; in experiment [3] (62.5 μmol/L), 147.6%; in experiment [3] (250 μmol/L), 189.3%.

Take `O=C(O)CCc1ccc(O)c(O)c1` [Sample 1, 3,4-Dihydroxyhydrocinnamic acid]: in experiment [1] (62.5 μmol/L), the “Glutathione production promotion rate” value was determined as 125.8%. Moreover, the results for the “ATP production promotion rate” value in experiment [2] (250 μmol/L), in experiment [2] (500 μmol/L) and in experiment [2] (1000 μmol/L) were 128.4%, 166.8% and 168.9%, respectively. Moreover, the “OCLN mRNA expression promotion rate” value in the experiment with OCLN mRNA (25 μmol/L) amounted to 209.9%; with OCLN mRNA (100 μmol/L), 557.3%.
